Measurements published in patent US20170281578A1, “METHODS FOR TREATING METABOLIC DISTURBANCES” (THE BOARD OF REGENTS OF THE UNIVERSITY OF TEXAS SYSTEM, priority 2016, published 2017).

Experiments:
[1] = Crossover trial in pre- or Stage I hypertension: serum and 24-hour urinary K and Mg; format: in vivo, human; settings: 4-week phases, 20 meq K bid; vs placebo phase, p<0.01
Text: In the inventors' published study (Vongpatanasin, 2016), 30 patients with pre- (6 subjects) or Stage I (24 subjects) hypertension underwent a crossover trial, whereby they took KMgCit powder (20 meq K, 10 meq Mg and 37 meq citrate twice daily), KCit powder (20 meq K and 20 meq citrate twice daily), KCl powder (20 meq K and 20 meq chloride twice daily), or placebo (microcrystalline cellulose) for four weeks each. Among hypertensive subjects, 17 of 24 received antihypertensive treatment before study participation. All treated subjects received single-drug regimen before participation in the study (6 were on β blockers, 11 on angiotensin receptor blockers, or angiotensin-converting enzyme inhibitors, or calcium channel blockers), which was continued at the same dose throughout the study. None of the subjects had low serum Mg<1.8 mg/dl or serum K<3.5 meq/l or were on diuretic therapy.
Serum K and 24-hour urinary K excretion were increased during KCl, KCit, and KMgCit phases compared with placebo phase (p <0.01 vs placebo). Serum Mg was increased during KMgCit phase compared with placebo and KCl phases (both p<0.01); 24-hour urinary Mg excretion was increased during KMgCit phase compared with placebo and KCit (both p<0.01). 24-hour urinary Mg excretion was higher during KMgCit compared with KCl (p=0.017).

serum FGF23 = experiment: Crossover randomized trial in pre- or Stage I hypertension: serum FGF23; format: in vivo, human; settings: 30 patients; after 4 weeks of treatment; 20 meq K twice daily; p=0.05
Method: FIG. 4 illustrates effect of KMgCit on serum FGF23.
In the inventors' study, 30 patients with pre- or Stage I hypertension participated in a crossover randomized trial, whereby they took KMgCit powder (20 meq K, 10 meq Mg and 37 meq citrate twice daily) or KCl powder (20 meq K and 20 meq chloride twice daily) for four weeks each. After 4 weeks of treatment, serum samples were analyzed fro FGF23.

[2] = system: RAA-SNS, serum aldosterone, fasting glucose, HOMA-IR; settings: cited from earlier work
serum triglyceride = experiment: Serum triglyceride in healthy adults on HCTZ with KMgCit or KCl; format: in vivo, human; settings: from 1 month to 5 months of treatment; with HCTZ 50 mg/day; 40 meq K/day; p=0.09 between groups
Method: In the inventors' prior study (Odvina, & Pak, 2006), previously unpublished data on serum triglyceride were extracted. Eight healthy adult subjects took HCTZ 50 mg/day with KMgCit containing 40 meq K and 20 meq Mg/day for 6 months. Ten subjects received HCTZ 50 mg/day with KC1 40 meq K/day. Serum triglyceride declined by −32±41 mg/dL from 1 month to 5 months of treatment in the KMgCit group; It was underaltered from 1 month to 5 months of KCl treatment (0±31 mg/dL). The difference of the change in serum triglyceride between KMgCit and KCl groups was marginally significant (p=0.09). No baseline or 6 month data were available.

O=C([O-])CC(O)(CC(=O)[O-])C(=O)[O-].[K+].[K+].[K+] [KCit powder, potassium citrate]
24-hour urinary K excretion [1]: increased | Serum K [1]: increased

[Cl-].[K+] [KCl powder, potassium chloride]
Serum FGF23 (serum FGF23): 53.1±22.2 Rel U/ml | CTD-induced activation of RAA-SNS ([2]; KCl supplementation): unaffected | Serum aldosterone ([2]; TZ-treated patients with hypertension, KCl supplementation): did not reduce | CTD-induced fasting hyperglycemia and increased HOMA-IR ([2]; correction of hypokalemia by KCl): did not reverse | Change in serum triglyceride (serum triglyceride): 0 ± 31 mg/dL | 24-hour urinary K excretion [1]: increased | Serum K [1]: increased
